Laboratory results as given in patent US8329736B2, “Triazole compounds that modulate HSP90 activity” (Synta Pharmaceuticals, Corp., priority 2006, dated 2012).

Tested on: Her2
Assay: Degradation of Her2 in BT-474 cells, Western blot (Method 1)
Format: cell-based, human
Conditions: 0.5 μM, overnight
Experimental: Human high-Her2 breast carcinoma BT474 (HTB-20), SK-BR-3 (HTB-30) and MCF-7 breast carcinoma (HTB-22) from American Type Culture Collection, VA, USA were grown in Dulbecco's modified Eagle's medium with 4 mM L-glutamine and antibiotics (100 IU/ml penicillin and 100 ug/ml streptomycine; GibcoBRL). To obtain exponential cell growth, cells were trypsinized, counted and seeded at a cell density of 0.5×10^6 cells/ml regularly, every 3 days. All experiments were performed on day 1 after cell passage.
BT-474 cells are treated with 0.5 μM, 2 μM, or 5 μM of 17AAG (a positive control) or 0.5 μM, 2 μM, or 5 μM of a compound of the invention overnight in DMEM medium. After treatment, each cytoplasmic sample is prepared from 1×10^6 cells by incubation of cell lysis buffer (#9803, cell Signaling Technology) on ice for 10 minutes. The resulting supernatant used as the cytosol fractions is dissolved with sample buffer for SDS-PAGE and run on a SDS-PAGE gel, blotted onto a nitrocellulose membrane by using semi-dry transfer. Non-specific binding to nitrocellulose is blocked with 5% skim milk in TBS with 0.5% Tween at room temperature for 1 hour, then probed with anti-Her2/ErB2 mAb (rabbit IgG, #2242, Cell Signaling) and anti-Tubulin (T9026, Sigma) as housekeeping control protein. […]

In the case of `C=CCNC1=C2C[C@@H](C)C[C@H](OC)[C@H](O)[C@@H](C)/C=C(\C)[C@H](OC(N)=O)[C@@H](OC)/C=C\C=C(/C)C(=O)NC(=CC1=O)C2=O` [Compound 17AAG, 17-allylamino-17-demethoxygeldanamycin], the “degradation of Her2” value is reported as “partial degradation of Her2”.
